Converted amounts (≈) assume the structure as drawn.
Key:
Bacteria = assay: in vitro antibacterial activity, serial dilution, stated for the bacteria as a whole; assay type: cell-based; details: at the highest concentrations tested (62.5-500 mcg/ml)
Experimental: (§1) The in vitro antibacterial activity of the compounds of the invention was determined by conventional serial dilution procedures. Bacterial cultures were grown in tryptose phosphate broth or brain heart infusion broth (containing heat-inactivated normal horse serum for tests with S. pyogenes) overnight at 37° C. and subsequently diluted in double strength broth to provide bacterial inocula of about 2×10^5 cells/ml. Aqueous solutions of the compounds of Formula I where R" is hydrogen were prepared by dissolving the free acid form in 0.5N sodium hydroxide. The solutions were diluted with sterile distilled water to 1000 mcg/ml of compound in terms of the free acid. Serial two-fold dilutions of the compound stock solutions were prepared in water and 0.5 ml of each dilution was transferred to sets of tubes, one set for each bacterial inoculum. Each tube was then inoculated with 0.5 ml of the appropriate culture, resulting in a final bacterial concentration of about 1×10^5 cells/ml. The minimal inhibitory concentration (MIC), defined as the lowest concentration of the test compound to inhibit visible bacterial growth, was recorded after 18-20 hours of static incubation at 37° C. The results are recorded in Table I:
These are intermediates for the compounds of Examples 5 and 7.

[1] = tested on: Klebsiella pneumoniae 39645; assay: in vivo antibacterial activity in infected female mice (K. pneumoniae); details: Klebsiella pneumoniae, 39645, sc, 336 h, K. pneumoniae i.m. infection, s.c. 17 h and 1 h preinfection, 6 h postinfection, twice a day for next three days, deaths recorded for fourteen days, read-out: Protective Dose (PD50)
Experimental: (§2) The in vivo antibacterial activity of the compounds of the invention was determined in female mice, 18-20 grams each, by the following procedure:
(§3) Aqueous solutions of the compounds of Formula I where R" is hydrogen were prepared by dissolving the free acid form in dilute sodium hydroxide and diluting the solution with distilled water to the desired volume.
(§4) Cultures of Escherichia coli Vogel prepared in brain heart infusion broth, and cultures of Klebsiella pneumoniae 39645 grown in tryptose phosphate broth with 5% rabbit serum diluted in the same broth were used to infect the mice as follows:
K. pneumoniae: mice were inoculated intramuscularly in the right hind leg with 0.2 ml of the bacterial test inoculum (2.05×10^4 cells/ml).
Mice infected with K. pneumoniae were medicated at the following times: seventeen hours and one hour preinfection, six hours postinfection and twice a day for the next three days. The test compound was administered the subcutaneous (0.2 ml) route. Deaths were recorded daily for fourteen days.
(§5) Groups of ten animals each for four or five dose levels were thus treated and the number of survivors in each group recorded. The fifty percent protective dose values (PD50) were then calculated.

Escherichia coli Vogel [2] = assay: in vivo antibacterial activity in infected female mice (E. coli); details: sc, 168 h, E. coli i.p. infection, medicated once s.c. one-half hour post infection, deaths recorded for seven days, read-out: Protective Dose (PD50)
Experimental: as §2, §3, §4
E coli: mice were inoculated intraperitoneally with 0.5 ml of the bacerial test inoculum (1.87×10^7 and 5×10^6 cells/ml respectively).
Mice infected with E. coli were medicated once (0.5 ml) one-half hour post infection, the test compound being administered by the subcutaneous (s.c.) route. Deaths were recorded daily for seven days.
as §5

Proteus vulgaris 9920 = assay: in vitro antibacterial activity, serial dilution (MIC); assay type: cell-based; details: 18-20 hours at 37° C., about 1×10^5 cells/ml, read-out: Minimal Inhibitory Concentration
Experimental: as §1, with “C.” for “C. The results are recorded in Table I:”

[3] = tested on: Pseudomonas aeruginosa MGH-2; assay: as above; assay type: cell-based; details: MGH2, 18-20 hours at 37° C., about 1×10^5 cells/ml, read-out: Minimal Inhibitory Concentration
Experimental: as §1, with “C.” for “C. The results are recorded in Table I:”

[4] = tested on: Streptococcus pyogenes C203; assay: as above; assay type: cell-based; details: broth containing heat-inactivated normal horse serum, 18-20 hours at 37° C., about 1×10^5 cells/ml, read-out: Minimal Inhibitory Concentration
Experimental: as §1, with “C.” for “C. The results are recorded in Table I:”

Escherichia coli Vogel [5] = assay: as above; assay type: cell-based; details: 18-20 hours at 37° C., about 1×10^5 cells/ml, read-out: Minimal Inhibitory Concentration
Experimental: as §1, with “C.” for “C. The results are recorded in Table I:”

[6] = tested on: Klebsiella pneumoniae 39645; assay: as above; assay type: cell-based; details: 18-20 hours at 37° C., about 1×10^5 cells/ml, read-out: Minimal Inhibitory Concentration
Experimental: as §1, with “C.” for “C. The results are recorded in Table I:”

[7] = tested on: Staphylococcus aureus Smith; assay: as above; assay type: cell-based; details: 18-20 hours at 37° C., about 1×10^5 cells/ml, read-out: Minimal Inhibitory Concentration
Experimental: as §1, with “C.” for “C. The results are recorded in Table I:”

Proteus mirabilis MGH-1 = assay: as above; assay type: cell-based; details: MGH1, 18-20 hours at 37° C., about 1×10^5 cells/ml, read-out: Minimal Inhibitory Concentration
Experimental: as §1, with “C.” for “C. The results are recorded in Table I:”

Compound | in vitro antibacterial activity (Bacteria) | ED50 [1] [mg/kg] | ED50 (Escherichia coli Vogel [2]) [mg/kg] | MIC (Proteus vulgaris 9920) [µg/mL] | MIC [3] [µg/mL] | MIC [4] [µg/mL] | MIC (Escherichia coli Vogel [5]) [µg/mL] | MIC [6] [µg/mL] | MIC [7] [µg/mL] | MIC (Proteus mirabilis MGH-1) [µg/mL]
CCOC(=O)c1cn(N)c2nc(C)ccc2c1=O [Example 1, Ethyl 1-amino-1,4-dihydro-7-methyl-4-oxo-1,8-naphthyridine-3-carboxylate] | inactive |  |  |  |  |  |  |  |  | 
Cc1ccc2c(=O)c(C(=O)O)cn(N)c2n1 [Example 2, 1-Amino-1,4-dihydro-7-methyl-4-oxo-1,8-naphthyridine-3-carboxylic acid] | inactive |  |  |  |  |  |  |  |  | 
CCOC(=O)c1cn(N(C)C=O)c2nc(C)ccc2c1=O [Example 4, Ethyl 1-(N-formylmethylamino)-1,4-dihydro-7-methyl-4-oxo-1,8-naphthyridine-3-carboxylate] | inactive |  |  |  |  |  |  |  |  | 
CNn1cc(C(=O)O)c(=O)c2ccc(C)nc21 [Example 5, 1,4-Dihydro-7-methyl-1-methylamino-4-oxo-1,8-naphthyridine-3-carboxylic acid] |  | > 200 | 141 | 62.5 (≈ 268 µM) | > 500 | > 500 | 31.3 (≈ 134 µM) | 62.5 (≈ 268 µM) | > 500 | 62.5 (≈ 268 µM)
CCOC(=O)c1cn(N(C=O)CC)c2nc(C)ccc2c1=O [Example 6, Ethyl 1-(N-formylethylamino)-1,4-dihydro-7-methyl-4-oxo-1,8-naphthyridine-3-carboxylate] | inactive | > 200 | 53.5 |  |  |  |  |  |  | 
CCNn1cc(C(=O)O)c(=O)c2ccc(C)nc21 [Example 7, 1-Ethylamino-1,4-dihydro-7-methyl-4-oxo-1,8-naphthyridine-3-carboxylic acid] |  | > 200 | 93 | 15.6 (≈ 63.1 µM) | > 500 | > 500 | 31.3 (≈ 127 µM) | 125 (≈ 506 µM) | > 500 | 250 (≈ 1010 µM)

Source: patent US4517191A, “1-Amino-1,8-naphthyridine compounds useful as bactericides” (Sterling Drug Inc., priority 1983, dated 1985)
